In ChEMBL document CHEMBL1949629, “Discovery of a second generation agonist of the orphan G-protein coupled receptor GPR119 with an improved profile” (Bioorg Med Chem Lett, 2012):
Converted amounts (≈) assume the structure as drawn. Each block holds one molecule with its values, some of them ahead of it.

Columns and labels:
[1] = Solubility in 20% HPbetaCD after 24 hrs; type: physicochemical
[2] = Solubility in 40% HPbetaCD after 24 hrs; type: physicochemical
[3] = Clearance in iv dosed Beagle dog; type: ADME, organism-based, Canis lupus familiaris; details: in vivo
[4] = Clearance in iv dosed Sprague-Dawley rat; type: ADME, organism-based; details: in vivo
[5] = Clearance in iv dosed Cynomolgus monkey; type: ADME, organism-based, Macaca fascicularis; details: in vivo
[6] = Clearance in iv dosed Zucker fa/fa rat; type: ADME, organism-based; details: in vivo
[7] = Clearance in iv dosed Swiss albino mouse; type: ADME, organism-based; details: in vivo
[8] = Solubility in water; type: physicochemical; details: buffer
[9] = Solubility in water at low pH; type: physicochemical; details: buffer
Cytochrome P450 2C9 = Cytochrome P450 2C9 (Homo sapiens, UniProt P11712); test: Inhibition of CYP2C9; type: ADME
Cytochrome P450 2C9, sequence (P11712 whole entry): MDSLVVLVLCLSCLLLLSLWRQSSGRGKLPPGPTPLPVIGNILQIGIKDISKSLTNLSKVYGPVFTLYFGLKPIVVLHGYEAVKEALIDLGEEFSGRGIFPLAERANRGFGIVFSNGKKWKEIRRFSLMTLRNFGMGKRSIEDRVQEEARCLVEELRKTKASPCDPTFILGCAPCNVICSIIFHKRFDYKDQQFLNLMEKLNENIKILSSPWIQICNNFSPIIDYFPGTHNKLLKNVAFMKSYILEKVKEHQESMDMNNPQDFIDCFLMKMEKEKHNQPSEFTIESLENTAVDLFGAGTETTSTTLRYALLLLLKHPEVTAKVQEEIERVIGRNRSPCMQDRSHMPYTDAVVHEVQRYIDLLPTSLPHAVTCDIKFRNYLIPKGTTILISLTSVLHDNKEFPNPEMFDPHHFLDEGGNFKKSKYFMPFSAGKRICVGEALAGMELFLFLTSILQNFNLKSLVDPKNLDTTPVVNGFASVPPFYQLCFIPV

solubility at 24 h [1]: 24.5 mg/mL (≈ 51.3 mM)
SMILES: CCc1c(Nc2ccc(S(C)(=O)=O)nc2C)ncnc1OC1CCN(C(=O)OC(C)C)CC1

solubility at 24 h [1]: 6.7 mg/mL (≈ 14.4 mM)
SMILES: Cc1nc(S(C)(=O)=O)ccc1Oc1ncnc(OC2CCN(C(=O)OC(C)C)CC2)c1C

solubility at 24 h [1]: 13.2 mg/mL (≈ 33.1 mM)
SMILES: Cc1ccc(Oc2ncnc(OC3CCN(C(=O)OC(C)C)CC3)c2C)c(C)n1

solubility at 24 h [2]: 15.9 mg/mL (≈ 41.1 mM)
solubility at 24 h [1]: 15.9 mg/mL (≈ 41.1 mM)
SMILES: Cc1ncccc1Oc1ncnc(OC2CCN(C(=O)OC(C)C)CC2)c1C

solubility [8]: Insoluble
solubility at 24 h [1]: 24 mg/mL (≈ 51.8 mM)
solubility [9]: soluble
IC50 (Cytochrome P450 2C9): 2500 nM
SMILES: Cc1nc(S(C)(=O)=O)ccc1Nc1ncnc(OC2CCN(C(=O)OC(C)C)CC2)c1C

Further lines, the molecule ahead of its results:

SMILES: Cc1nc(S(C)(=O)=O)ccc1Nc1ncnc(OC2CCN(C(=O)OC(C)C)CC2)c1C1CC1
solubility at 24 h [1]: 17.7 mg/mL (≈ 36.2 mM)

SMILES: Cc1ccncc1Oc1ncnc(OC2CCN(C(=O)OC(C)C)CC2)c1C
solubility at 24 h [2]: 8.5 mg/mL (≈ 22 mM)

SMILES: Cc1nc(S(C)(=O)=O)ccc1Nc1ncnc(OC2CCN(C(=O)OC(C)C)CC2)c1OC(F)F
solubility at 24 h [1]: 7.8 mg/mL (≈ 15.1 mM)

SMILES: CC(C)OC(=O)N1CCC(Oc2ncnc3c2cnn3-c2ccc(S(C)(=O)=O)cc2F)CC1
clearance [3]: 2 mL/min/kg
clearance [4]: 20 mL/min/kg
clearance [5]: 1.83 mL/min/kg
clearance [6]: 7.33 mL/min/kg
clearance [7]: 3.83 mL/min/kg

SMILES: Cc1c(Nc2ccc(S(C)(=O)=O)nc2)ncnc1OC1CCN(C(=O)OC(C)C)CC1
solubility at 24 h [1]: 21.3 mg/mL (≈ 47.4 mM)
